Data reported in PubChem BioAssay AID2060617 (Molecular Pharmacology Branch, DTP, NCI, 2025).
“And” between values parts separate entries of the source, which are not always exact repeats. Identical values can stand only once.

System: 485368-065-R4-J2-PDC spheroids with HUVEC/MSC, viability
Assay: Anticancer human tumor 485368-065-R4-J2-PDC patient-derived pancreatic carcinoma cell line growth inhibition [CLK]
Conditions: for viability, T/C: stronger effect = lower value
How it was run: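 Patient-derived tumor cells grown as complex spheroids with HUVEC endothelial cells and mesenchymal stem cells, treated with drug combinations. Concentrations descend in half-log steps from near clinical Cmax, or from 10 microM if Cmax unknown.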

[1] = curve of first compound, second compound 0.0316 µM
[2] = curve of first compound, second compound 0.1 µM
[3] = curve of first compound, second compound 0.316 µM
[4] = curve of first compound, second compound 1 µM
[5] = curve of first compound, second compound 3.16 µM
[6] = curve of first compound, second compound 10 µM
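Note: spheroids exposed to compounds for seven days.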
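Throughout, for viability, T/C: 100% = DMSO vehicle control wells.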

C#Cc1c(F)ccc2cc(O)cc(-c3ncc4c(N5CC6CCC(C5)N6)nc(OCC56CCCN5CC(F)C6)nc4c3F)c12 (stereo unspecified) + CN1CCN(c2cc(C(=O)Nc3cc4cc(-c5cnn(C)c5)ccc4cn3)ccn2)CC1 showed an IC50 [1] of over 10000 nM, an IC50 [2] of over 10000 nM and an IC50 [3] of 9710 nM. It also gave an IC50 [4] of under 31.6 nM, an IC50 [5] of under 31.6 nM and an IC50 [6] of under 31.6 nM. For the same compound, the viability, T/C (second compound 0.0316 µM, first compound 0.0316 µM) was 94.6%, the viability, T/C (second compound 0.0316 µM, first compound 0.1 µM) was 106% and the viability, T/C (second compound 0.0316 µM, first compound 0.316 µM) was 96.7%. The viability, T/C (second compound 0.0316 µM, first compound 1 µM) was 116%, the viability, T/C (second compound 0.0316 µM, first compound 3.16 µM) was 107% and the viability, T/C (second compound 0.0316 µM, first compound 10 µM) was 117%. The viability, T/C (second compound 0.1 µM, first compound 0.0316 µM) was 112%, the viability, T/C (second compound 0.1 µM, first compound 0.1 µM) was 115% and the viability, T/C (second compound 0.1 µM, first compound 0.316 µM) was 96.3%. It also gave a viability, T/C (second compound 0.1 µM, first compound 1 µM) of 111%, a viability, T/C (second compound 0.1 µM, first compound 3.16 µM) of 96% and a viability, T/C (second compound 0.1 µM, first compound 10 µM) of 75.8%. It also gave a viability, T/C (second compound 0.316 µM, first compound 0.0316 µM) of 90.3%, a viability, T/C (second compound 0.316 µM, first compound 0.1 µM) of 90.9% and a viability, T/C (second compound 0.316 µM, first compound 0.316 µM) of 82.5%. The viability, T/C (second compound 0.316 µM, first compound 1 µM) was 80.7%, the viability, T/C (second compound 0.316 µM, first compound 3.16 µM) was 68.6% and the viability, T/C (second compound 0.316 µM, first compound 10 µM) was 49.3%. The viability, T/C (second compound 1 µM, first compound 0.0316 µM) was 3.21%, the viability, T/C (second compound 1 µM, first compound 0.1 µM) was 2.21% and the viability, T/C (second compound 1 µM, first compound 0.316 µM) was 1.7%. For the same compound, the viability, T/C (second compound 1 µM, first compound 1 µM) was 2.24%, the viability, T/C (second compound 1 µM, first compound 3.16 µM) was 1.78% and the viability, T/C (second compound 1 µM, first compound 10 µM) was 1.33%. It also gave a viability, T/C (second compound 3.16 µM, first compound 0.0316 µM) of 1.18%, a viability, T/C (second compound 3.16 µM, first compound 0.1 µM) of 1.09% and a viability, T/C (second compound 3.16 µM, first compound 0.316 µM) of 1.08%. It also gave a viability, T/C (second compound 3.16 µM, first compound 1 µM) of 1.21%, a viability, T/C (second compound 3.16 µM, first compound 3.16 µM) of 1.29% and a viability, T/C (second compound 3.16 µM, first compound 10 µM) of 1.21%. For the same compound, the viability, T/C (second compound 10 µM, first compound 0.0316 µM) was 1.44%, the viability, T/C (second compound 10 µM, first compound 0.1 µM) was 2.45% and the viability, T/C (second compound 10 µM, first compound 0.316 µM) was 1.6%. It also gave a viability, T/C (second compound 10 µM, first compound 1 µM) of 1.34%, a viability, T/C (second compound 10 µM, first compound 3.16 µM) of 2.21% and a viability, T/C (second compound 10 µM, first compound 10 µM) of 1.87%.
CC1COCCN1c1cc(C2(S(C)(=N)=O)CC2)nc(-c2ccnc3[nH]ccc23)n1 (stereo unspecified) was tested, and the viability, T/C (compound 0.0316 µM) was 91.5% and 90.7%, the viability, T/C (compound 0.1 µM) was 97.5% and 93.1% and the viability, T/C (compound 0.316 µM) was 94.5% and 104%. The viability, T/C (compound 1 µM) was 108% and 91.3%, the viability, T/C (compound 3.16 µM) was 109% and 108% and the viability, T/C (compound 10 µM) was 102% and 113%. The IC50 (curve of compound) was over 10000 nM.
In the case of NC(=O)C(=Cn1cnc(-c2cc(C(F)(F)F)cc(C(F)(F)F)c2)n1)c1cncnc1 + CN1CCN(c2cc(C(=O)Nc3cc4cc(-c5cnn(C)c5)ccc4cn3)ccn2)CC1, the IC50 [1] is reported as over 3000 nM, the IC50 [2] is reported as 2910 nM and the IC50 [3] is reported as 48.1 nM. For the same compound, the IC50 [4] was under 9.49 nM, the IC50 [5] was under 9.49 nM and the IC50 [6] was under 9.49 nM. It also gave a viability, T/C (second compound 0.0316 µM, first compound 0.00949 µM) of 100%, a viability, T/C (second compound 0.0316 µM, first compound 0.03 µM) of 127% and a viability, T/C (second compound 0.0316 µM, first compound 0.0949 µM) of 173%. The viability, T/C (second compound 0.0316 µM, first compound 0.3 µM) was 170%, the viability, T/C (second compound 0.0316 µM, first compound 0.949 µM) was 142% and the viability, T/C (second compound 0.0316 µM, first compound 3 µM) was 71.4%. For the same compound, the viability, T/C (second compound 0.1 µM, first compound 0.00949 µM) was 109%, the viability, T/C (second compound 0.1 µM, first compound 0.03 µM) was 125% and the viability, T/C (second compound 0.1 µM, first compound 0.0949 µM) was 155%. It also gave a viability, T/C (second compound 0.1 µM, first compound 0.3 µM) of 129%, a viability, T/C (second compound 0.1 µM, first compound 0.949 µM) of 79.5% and a viability, T/C (second compound 0.1 µM, first compound 3 µM) of 49.2%. It also gave a viability, T/C (second compound 0.316 µM, first compound 0.00949 µM) of 71.2%, a viability, T/C (second compound 0.316 µM, first compound 0.03 µM) of 65.3% and a viability, T/C (second compound 0.316 µM, first compound 0.0949 µM) of 28.8%. For the same compound, the viability, T/C (second compound 0.316 µM, first compound 0.3 µM) was 11.8%, the viability, T/C (second compound 0.316 µM, first compound 0.949 µM) was 4.77% and the viability, T/C (second compound 0.316 µM, first compound 3 µM) was 3.83%. For the same compound, the viability, T/C (second compound 1 µM, first compound 0.00949 µM) was 0.93%, the viability, T/C (second compound 1 µM, first compound 0.03 µM) was 1.37% and the viability, T/C (second compound 1 µM, first compound 0.0949 µM) was 3.35%. For the same compound, the viability, T/C (second compound 1 µM, first compound 0.3 µM) was 7.19%, the viability, T/C (second compound 1 µM, first compound 0.949 µM) was 6.52% and the viability, T/C (second compound 1 µM, first compound 3 µM) was 6.06%. The viability, T/C (second compound 3.16 µM, first compound 0.00949 µM) was 1.64%, the viability, T/C (second compound 3.16 µM, first compound 0.03 µM) was 3.12% and the viability, T/C (second compound 3.16 µM, first compound 0.0949 µM) was 5.78%. The viability, T/C (second compound 3.16 µM, first compound 0.3 µM) was 7.76%, the viability, T/C (second compound 3.16 µM, first compound 0.949 µM) was 10.5% and the viability, T/C (second compound 3.16 µM, first compound 3 µM) was 8.08%. The viability, T/C (second compound 10 µM, first compound 0.00949 µM) was 1.73%, the viability, T/C (second compound 10 µM, first compound 0.03 µM) was 4.63% and the viability, T/C (second compound 10 µM, first compound 0.0949 µM) was 4.7%. For the same compound, the viability, T/C (second compound 10 µM, first compound 0.3 µM) was 7.24%, the viability, T/C (second compound 10 µM, first compound 0.949 µM) was 9.55% and the viability, T/C (second compound 10 µM, first compound 3 µM) was 6.71%.
